{"source": "patent EP1897937A1", "about": "“Method of culturing NPCs” (NeuroProgen GmbH Leipzig, priority 2006, dated 2008)", "assay_type_in_all_cases": "cell-based, human", "key": {"hmNPCs [1]": {"test_system": "hmNPCs", "test": "Patch-clamp of voltage-gated potassium and sodium channels in differentiated cells", "details": "100 µM; differentiation for 3 weeks", "method": "Patch-clamp analyses of hmNPCs was carried out after in vitro differentiation for 3 weeks with or without 100 µM UTP at room temperature using an inverted microscope DMIL (Leica, Bensheim, Germany) and an EPC-9 amplifier (HEKA, Lambrecht, Germany). Recordings of voltage-gated potassium and sodium channels were obtained in the whole-cell voltage-clamp mode by stepwise depolarisations with increasing amplitudes from the holding potential of - 70mV to 50mV in steps of 10mV. Ligand-gated P2X-channels were investigated in the whole-cell voltage-clamp mode by rapid application of 300 µM ADP, ATP, and UTP with a SF-77B perfusion fast-step system (Warner Instruments Inc., Hamden, USA). Series resistance values were continuously measured during all recordings. The external bath solution contained (in mM): 142 NaCl, 1 CaCl2, 8 KCI, 6 MgCl2, 10 Glucose, and 10 HEPES (pH 7.4; 320 mOsm). Micropipettes were formed from thin-walled borosilicate glass (Science Products, Hofheim, Germany) with a Flaming Brown electrode puller P-97 (Sutter Instrument Co., Novato, USA) and a Micro Forge (Narishige, Tokio, Japan). […] Whole cell currents were low-pass filtered at 2-5 kHz, digitized at 10 kHz, and analyzed using PulseFit software (HEKA, Lambrecht, Germany) and Prism 4 (GraphPad Software Inc, San Diego, USA). Numerical data were expressed as mean ± SEM. […]"}, "hmNPCs [2]": {"test_system": "hmNPCs", "test": "Long-term proliferation: number of living cells (hemocytometer, trypan blue exclusion)", "method": "(§1) To determine long-term proliferation, hmNPCs were plated and expanded for 2 passages with or without addition of various agents (see below) to the custom expansion media containing the growth factors EGF and FGF2. Different fetal midbrain tissues were included in this study. At the end of the proliferation period, differentiation of hmNPCs was induced via replacement of expansion media with mitogen-free media containing 1% FCS, 5 µM forskoline (Sigma-Aldrich Chemie GmbH Munich, Germany), and 100 pg/ml IL-1β (Sigma). The differentiation and expansion media were supplemented with different drugs as appropriate. Prior to immunocytochemistry or protein extraction, hmNPCs were allowed to differentiate for 1 week. To determine short-term proliferation via Ki67 immunostaining, the cells were seeded into 24-well plates (70,000 cells/well) and left overnight to rest. P2 receptor agonists (ATP, UTP, ATP + UTP, ADP, ADPβS) were supplied daily for 5 consecutive days. Ki67/nestin double-positive cells were counted in 8 randomly selected fields of nucleotide-treated or untreated samples. For the assessment of MAPK phosphorylation the cells were kept free of mitogens for 2 d prior to addition of the MEK-inhibitor in expansion media. In addition, the MEK-inhibitor was added during the differentiation period 15 min before UTP administration.\n(§2) UTP, UDP, ATP, ADP, ADPβS and suramin were purchased from Sigma (Sigma-Aldrich Chemie GmbH Munich, Germany). UTP and UDP were applied at different concentrations (1 µM, 10 µM, 100 µM), ATP at 100 µM, ADP at 100 µM, and ADPβS at100 µM. During expansion of the cells, the nucleotides were renewed once a week with every media change, unless otherwise stated. They were applied once at the beginning of the differentiation period. The P2 receptor antagonist suramin (10 µM) was added to expansion media 30 min prior to addition of UTP (100 µM). The stock solution of the MEK1/2 inhibitor U0126 (Promega Corporation, Mannheim, Germany) was prepared in dimethyl sulfoxide (DMSO) at a concentration of 10 mM. The stock solution was then diluted in 0.1 M PBS to obtain a concentration of 1 mM. MEK inhibitor (final concentration 10 µM) was added to mitogen-free expansion media, 15 min before UTP treatment (1 µM) of hmNPCs.\nCell counting of control (untreated) and treated hmNPCs was performed using a hemocytometer. Adherent cells were collected by detachment with accutase™ (PAA Laboratories, Pasching, Austria) for 10 min at 37°C. […] The number of total and trypan blue-positive cells was then determined by counting at least 300 cells per sample in a hemocytometer."}, "ERK1/2": {"test_system": "ERK1/2", "test": "ERK1/2 (MAPK) phosphorylation by Western blot", "method": "as §1, §2\nIn order to prepare protein extracts, hmNPCs were collected, washed with ice-cold PBS and lysed in buffer [10 mM HEPES-KOH (pH 7.9), 10 mM KCI, 1.5 mM MgCl2, 0.1% NP-40], supplemented with protease inhibitor cocktail (Roche). After a brief centrifugation at 4°C/10 000×g, protein concentrations and protein yield from extracts were determined using the Bradford method (Bio-Rad, Hercules, CA, USA). To preserve the phosphorylation state of proteins, extracts for the MAPK experiment were obtained using the PhosphoSafe™ extraction reagent containing phophatase inhibitors (Novagen). […] Membranes were blocked with 5% (wt/vol) nonfat dry milk in PBS-T (PBS, 0.1% (vol/vol) Tween 20) for 2 h at room temperature and subsequently incubated with the desired primary antibody (diluted in PBS containing 5% non-fat milk and 0.1% Tween 20) overnight at 4 °C with gentle agitation. The membrane was incubated with horseradish peroxidase-coupled secondary antibody for 1 h at room temperature. […] The chemiluminescence was quantified using the AIDA, two-dimensional densitometry software (Raytest lsotopenmeb, Straubenhardt, Germany)."}, "hmNPCs [3]": {"test_system": "hmNPCs", "test": "Dopaminergic differentiation: TH protein expression by Western blot", "method": "as §1, §2\nIn order to prepare protein extracts, hmNPCs were collected, washed with ice-cold PBS and lysed in buffer [10 mM HEPES-KOH (pH 7.9), 10 mM KCI, 1.5 mM MgCl2, 0.1% NP-40], supplemented with protease inhibitor cocktail (Roche). After a brief centrifugation at 4°C/10 000×g, protein concentrations and protein yield from extracts were determined using the Bradford method (Bio-Rad, Hercules, CA, USA). To preserve the phosphorylation state of proteins, extracts for the MAPK experiment were obtained using the PhosphoSafe™ extraction reagent containing phophatase inhibitors (Novagen). […] Membranes were blocked with 5% (wt/vol) nonfat dry milk in PBS-T (PBS, 0.1% (vol/vol) Tween 20) for 2 h at room temperature and subsequently incubated with the desired primary antibody (diluted in PBS containing 5% non-fat milk and 0.1% Tween 20) overnight at 4 °C with gentle agitation. The membrane was incubated with horseradish peroxidase-coupled secondary antibody for 1 h at room temperature. Chemiluminescence detection was performed by incubating the membranes with SuperSignal-Dura substrate (Pierce Biotechnology, Rockford, U.S.A) followed by analysis on a CCD cooling camera (Fuji LAS-1000plus). The chemiluminescence was quantified using the AIDA, two-dimensional densitometry software (Raytest lsotopenmeb, Straubenhardt, Germany)."}, "[4]": {"details": "100 µM, one week of differentiation"}}}
{"smiles": "O=c1ccn([C@@H]2O[C@H](COP(=O)(O)OP(=O)(O)OP(=O)(O)O)[C@@H](O)[C@H]2O)c(=O)[nH]1", "note": "[UTP, uridine 5'-triphosphate]", "values": [{"measurement": "maximal potassium and sodium current amplitudes, treated vs untreated", "setting": "hmNPCs [1]", "value": "no significant difference"}, {"measurement": "number of living cells", "setting": "hmNPCs [2]; 100 µM each, 2 weeks in expansion media, on coapplication ADP 30 min before UTP, 20160 min", "value": "110 ± 6", "unit": "%"}, {"measurement": "activity at 1 µM", "setting": "hmNPCs [2]; Homo sapiens, 336 h, 1 µM, 2 passages (approximately 2 weeks of expansion), control 100 ± 5%, read-out: number of living cells as compared to controls", "value": "152 ± 6", "unit": "%"}, {"measurement": "performance of proliferating hmNPCs grown without mitogens", "setting": "hmNPCs [2]; without EGF and FGF2, 1 µM once in 5 days", "value": "performed slightly better"}, {"measurement": "ERK1/2 (MAPK) phosphorylation", "setting": "ERK1/2; 1 µM, 30 min, expansion media, mitogen-free", "value": "phosphorylated"}, {"measurement": "expression of phosphorylated ERK1/2", "setting": "ERK1/2; [4]", "value": "increased"}, {"measurement": "TH expression", "setting": "hmNPCs [3]; 1 µM during 2 weeks of expansion, then 100 µM during 1 week of differentiation", "value": "529 ± 20", "unit": "%"}, {"measurement": "expression of TH", "setting": "hmNPCs [3]; [4]", "value": "increased"}, {"measurement": "activity at 100 µM", "setting": "hmNPCs [3]; Homo sapiens, 100 µM, long-term treatment, read-out: TH protein expression in Western blots as compared to controls", "value": "319 ± 5", "unit": "%"}]}
